Results published in US6797728B2, “Use of intracellular calcium chelators to increase surfactant secretion in the lungs” (Thomas Jefferson University, priority 2000, dated 2004).
Like-named read-outs stand apart in the source and are kept apart here.

Tests used:
alveolar type II cells [1] = assay: Surfactant secretion assay (secretion of 3H-labeled phospholipid by type II cells); type: cell-based, rat; details: for effect of calcium depletion on secretagogue-stimulated PL secretion: cells in Ca2+-free medium overnight and during the 2 h assay, ATP 500 μM, TG 10 μM, Io 1 μM, PMA 50 ng/ml, BAPTA-AM 25 μM; for effect of re-adding calcium after overnight depletion on secretagogue-induced PL secretion: Ca2+ added back to 1.64 mM at start of the 2 hr secretion assay; for effect of removing extracellular Ca2+ during the assay on secretagogue-elicited surfactant secretion: normal medium overnight, Ca2+-free medium for the 2 h assay, FIG. 4; for % PL secreted: BAPTA 25 μM, SP-A 100 ng/ml, alone or together, percentage of 3H-labeled phospholipid secreted, no additions 8.33
Description: Freshly isolated type II cells were prepared according to standard techniques, originally described by Dobbs (Dobbs, et al, AM. Rev. Respir. Dis. 134, 141-145, 1986), and later modified by Sen and Chander (Sen and Chander, Biochem. J. 298: 681-687, 1994). The use of these techniques has been previously reported. (Strayer, et al, Ex. Cell Res. 226: 90-97, 1996; Strayer, et al, Rec. Signal Transd. 7: 111-120, 1997). Briefly, lungs of anesthetized rats were cleared of blood and treated with elastase endotracheally (Worthington Biochemical, Freehold, N.J.) to obtain free cells. The cells were separated from lung debris and plated on bacteriological plates coated with normal rat IgG (Sigma Chemical Co., St. Louis, Mo.). After 1 hr, free cells were collected by panning, pelleted, and resuspended (0.8×10^6 cells/ml) in minimum essential medium (MEM)+10% fetal bovine serum (FCS, Life Technologies, Gaithersburg, Md.).
Secretion studies were performed as described by Sen and Chander. (Sen and Chander, Biochem. J. 298: 681-687, 1994). Briefly, 0.8×10^6 alveolar type II cells were cultured for 18 h in MEM with 10% FBS+0.5 μCi of [methyl-^3H]-choline (Amersham, Arlington Heights, Ill.) to label cellular phospholipids (PL) metabolically. Cells were washed to remove non-adherent cells and unincorporated radioactivity. After replacing this medium with fresh MEM, plates were incubated for 15 min. SP-A (100 ng/ml) was added to selected plates, followed by incubation for an additional 15 min.; secretagogues were then added at the appropriate concentrations [control (no addition), ATP (500 μM), TG (10 μM), ionomycin (1 μM), PMA (50 ng/ml)]. At this point (t=0) in each experiment, some samples were removed for analysis of secreted labeled lipids to establish a baseline. Incubation proceeded for an additional 2 h for all other plates. Following this incubation, media were removed and centrifuged (15 min., 300×g) to pellet cells that detached during incubation. These cells were later pooled with those recovered from the plates. Lipids from both media and plates were extracted (Sen and Chander, Biochem. J. 298: 681-687, 1994) after adding [methyl-^14C]-DPPC (Amersham, Arlington Heights, Ill.) as a recovery standard, and egg phosphatidylcholine (Sigma Chemical Co., St. Louis, Mo.) as a carrier lipid. Recovered lipids were dissolved in Scintiverse II fluid (Fisher Scientific, Pittsburgh, Pa.) and the radioactivity of these lipid extracts measured with a scintillation counter (Beckman Instruments, Fullerton, Calif.). ^3H-labeled phospholipid recovery was normalized to recovery of [methyl-^14C]-DPPC. Phospholipid secretion was determined as percent secretion=(cpm in lipids recovered from media×100)/(cpm in lipids recovered from media and plates).

[2] = read-out: affinity of BAPTA for calcium; cited from earlier work
[3] = test system: [Ca^2+]l in type II cells; assay: ER (lumenal) calcium concentration, fura2ff fluorescence with Mn2+ quench; type: cell-based, rat; details: fura2ff 340/380 nm ratio, Mn2+ added, FIG. 7
Description: Type II cells were prepared as described and plated on glass coverslips that had been pretreated with poly-L-lysine (Sigma, 0.01%, 20° C., 15 mins). After incubation overnight at 37° C. in MEM-10% FCS, the cells were washed three times with serum-free MEM and once with loading buffer (121 mM NaCl, 4.7 mM KCl, 1.2 mM KH2P04, 1.2 mM MgSO4, 2% BSA, 10 mM glucose, 20 mM HEPES, 2 mM CaCl2). The cells were loaded in loading buffer containing 10 μM Fura-2FF(AM) (Teflabs, Austin, Tex.) and 0.06% Pluronic Acid (Molecular Probes, Inc.) for two hours with shaking at 37° C. The coverslip was washed in calcium-free imaging buffer (121 mM NaCl, 4.7 mM KCl, 1.2 mM KH2PO4, 1.2 mM MgSO4, 10 mM glucose, 20 mM HEPES), inserted into a thermostatically regulated chamber (37° C.), and mounted on an inverted fluorescence microscope in 1 ml of imaging buffer. Fluorescence imaging following excitation at 340 nm and 380 nm was performed (supra).
During imaging MnCl2 was added at time=0 to a final concentration of 500 μM followed by either SP-A, ionomycin, or TG (final concentrations 100 ng/ml, 1 μM and 4 μM respectively).
Decreases in [Ca^2+]l, rather than increases in [Ca^2+]i, were hypothesized to be the critical regulator of surfactant secretion by all secretagogues, with the exception of PMA. This theory predicts that BAPTA-AM, and other calcium-dependent secretagogues, would decrease [Ca^2+]l, but that PMA would not. Thus, type II cells were loaded with fura2ff. This fluorophore has a much lower affinity for calcium in the μM range than fura2 does, and is therefore used to assess changes in [Ca^2+]l. Type II cells were also treated with Mn^2+, which binds cytoplasmic fura2ff and prevents its binding to Ca^2+. (Dorn, et al, Br. J. Pharmacol. 97: 163-170, 1989; Kuroki, et al, Biochem. J. 115: 115-119, 1991; Miyata, et al, Am. J. Physiol. 261: H1123-H1134, 1991). Any changes in the lumenal free calcium concentration were measured as changes in the ratio of fura2ff excitation at 340 nm to that at 380 nm. […] PMA had no effect.

alveolar type II cells [4] = assay: Surfactant secretion assay (secretion of 3H-labeled phospholipid by type II cells); type: cell-based, rat; details: within 4 hours of treatment; control cells release about 7%
[5] = test system: [Ca^2+]i in type II cells; assay: Cytosol free calcium concentration, fura2 digital imaging fluorescence microscopy; type: cell-based, rat; details: fura2 340/380 nm ratio, compared to mock-treated cells
Description: 10^6 freshly isolated type II cells were added to 35 mm tissue culture plates, each containing a polylysine (Sigma Chemical Co.) coated 25 mm diameter coverslip and incubated (37° C., 5% CO2) for at least 2 hr. Twenty min before use, Fura2/AM (Molecular Probes) was added (final concentration, 3 μM) to each coverslip. After Fura2 loading, the coverslips were washed with cell incubation buffer (121 mM NaCl, 4.7 mM KCl, 1.2 mM KH2PO4, 1.2 mM MgSO4, 2 mM CaCl2, 10 mM glucose, 5 mM NaHCO3, 0.2% BSA, and 10 mM HEPES/NaOH, pH 7.4) and inserted into a thermostatically regulated chamber (37° C.). Cell incubation buffer was added and the whole assembly placed on the stage of a Nikon Diaphot inverted microscope. At appropriate times (see infra), secretagogues in the appropriate concentration (see supra) were added. Fluorescence images of the cells were collected by exciting the cells alternately at 340 and 380 nm and measuring emission at 500 nm using a charge-coupled device camera (Photometrics, Inc.) as described previously. (Rooney, et al, Biol. Chem 264: 17131-17141, 1989). Image acquisition and analysis were done with Macintosh computers running customized image-processing software. The ratio (340/380) of Fura2 excitation was calibrated to [Ca^2+]i as described. (Rooney, et al, Biol. Chem 264: 17131-17141, 1989; Grynkiewicz, et al, J. Biol. Chem. 260: 3440-3450, 1985).

type II cells [6] = test system: type II cells
Description: (§1) Viability of type II cells was tested both by trypan blue exclusion, and by tetrazolium/formazan assay (Promega Corp., Madison, Wis.), which measures mitochondrial dehydrogenases. These enzymes are only present in active form in living cells and are absent in nonviable cells. […] For such studies, an assay solution containing the tetrazolium compound (3-(4,5-dimethylthiazol-2-yl)-5-(3-carboxymethoxyphenyl)-2-(4-sulfonyl)-2H-tetrazolium, inner salt; MTS) and an electron-coupling reagent (phenazine methosulfate; PMS) in MEM is added to the cells. […] Correction was made for the small effect of BAPTA itself on this reaction by running a parallel assay on plates with no cells.
(§2) In these studies, cellular viability was determined in two ways. Viable cells enumerated by counting trypan blue-excluding cells. […] In addition, cellular viability in BAPTA-AM-treated cultures was measured using the tetrazolium/formazan assay for mitochondrial dehydrogenase.

type II cells [7] = test system: type II cells; remark: listed apart in the source
Description: as §1, §2

type II cells [8] = assay: Type II cell viability by trypan blue exclusion; details: at the concentrations of FIG. 2; compared to each other and to untreated type II cells
Description: as §1, §2

| Molecule | effect of calcium depletion on secretagogue-stimulated PL secretion (alveolar type II cells [1]) | effect of re-adding calcium after overnight depletion on secretagogue-induced PL secretion (alveolar type II cells [1]) | effect of removing extracellular Ca2+ during the assay on secretagogue-elicited surfactant secretion (alveolar type II cells [1]) | effect on lumenal free calcium concentration [Ca^2+]l [3] | also measured |
| --- | --- | --- | --- | --- | --- |
| Nc1ncnc2c1ncn2[C@@H]1O[C@H](COP(=O)(O)OP(=O)(O)OP(=O)(O)O)[C@@H](O)[C@H]1O [ATP] | prevented | – | – | – | – |
| O=C(O)CN(CC(=O)O)c1ccccc1OCCOc1ccccc1N(CC(=O)O)CC(=O)O [BAPTA, 1,2-bis(2-aminophenoxy)ethane-N,N,N, N-tetraacetic acid] | prevented BAPTA secretagogue activity | restored | not significantly altered | decreased [Ca^2+]l | surfactant secretion at 5 μM BAPTA (alveolar type II cells [1]; dose-response studies, concentration range of 5 μM): below the threshold; concentrations at which BAPTA stimulates surfactant secretion (powerful secretagogue) (alveolar type II cells [1]; dose-response, FIG. 2): 25 to 100 µM; Kd [2]: 160 nM |
| CC(=O)OCOC(=O)CN(CC(=O)OCOC(C)=O)c1ccccc1OCCOc1ccccc1N(CC(=O)OCOC(C)=O)CC(=O)OCOC(C)=O [BAPTA-AM, 1,2-bis(2-aminophenoxy)ethane-N,N,N, N-tetraacetic acid acetoxymethyl ester] | – | – | – | – | % PL secreted (alveolar type II cells [1]): 15.47%; stored surfactant released (alveolar type II cells [4]): about ⅔; effect on cytosol free calcium concentration [Ca^2+]i [5]: caused [Ca^2+]i to decrease somewhat; effect on cell viability (trypan blue-excluding cells) (type II cells [6]): Neither BAPTA-AM nor TPEN at these concentrations had any effect on cell viability; viability of treated type II cells (tetrazolium/formazan) (type II cells [7]): does not differ from that of control cells |
| C[C@H](CCC(=O)O)C[C@H](C)C[C@H](C)C(=O)/C=C(\O)[C@H](C)C[C@H](C)C/C=C/[C@@H](C)[C@@H](O)[C@@H](C)[C@@H](O)C[C@@H]1CC[C@@](C)([C@H]2CC[C@@](C)([C@@H](C)O)O2)O1 [Io, ionomycin] | prevented | restored | not significantly altered | decreased [Ca^2+]l | – |
| CCCCCCCCCCCCCC(=O)O[C@@H]1[C@@H](C)[C@@]2(O)[C@@H](C=C(CO)C[C@]3(O)C(=O)C(C)=C[C@@H]23)[C@@H]2C(C)(C)[C@]12OC(C)=O [PMA, phorbol 12-myristate 13-acetate] | did not alter | increased PMA-induced secretion, but this effect was not statistically significant | Statistically significant but small decreases | no effect | effect on cytosol free calcium concentration [Ca^2+]i [5]: did not alter [Ca^2+]i |
| C/C=C(/C)C(=O)O[C@H]1C(C)=C2[C@H]([C@@H]1OC(=O)CCCCCCC)[C@@](C)(OC(C)=O)C[C@H](OC(=O)CCC)[C@@]1(O)[C@H]2OC(=O)[C@@]1(C)O [TG, thapsigargin] | partially inhibited | restored | Statistically significant but small decreases | – | – |
| c1ccc(CN(CCN(Cc2ccccn2)Cc2ccccn2)Cc2ccccn2)nc1 [TPEN, N,N,N′,N′-tetrakis-(2-pyridylmethyl) ethylenediamine] | – | – | – | – | secretagogue activity (alveolar type II cells [1]; TPEN up to 150 μM, FIG. 2): no secretagogue activity; effect on cell viability (trypan blue-excluding cells) (type II cells [8]): Neither BAPTA-AM nor TPEN at these concentrations had any effect on cell viability |
| surfactant-associated protein-A [SP-A] | – | – | – | increased [Ca^2+]l | % PL secreted (alveolar type II cells [1]): 4.98%; BAPTA-induced surfactant secretion after SP-A pretreatment (alveolar type II cells [1]; SP-A pretreatment, then BAPTA-AM loading concentration 25 μM, versus cells not exposed to SP-A): significantly less surfactant secretion |
